Where two headings read alike, the source gives them in different places.
Legend:
Format in all cases: biochemical
[1] = molecular target: T1, 320 wild-type protein kinases (Homo sapiens, UniProt Q9Y2U5); settings: singlicate
T1 sequence (Q9Y2U5 1-619): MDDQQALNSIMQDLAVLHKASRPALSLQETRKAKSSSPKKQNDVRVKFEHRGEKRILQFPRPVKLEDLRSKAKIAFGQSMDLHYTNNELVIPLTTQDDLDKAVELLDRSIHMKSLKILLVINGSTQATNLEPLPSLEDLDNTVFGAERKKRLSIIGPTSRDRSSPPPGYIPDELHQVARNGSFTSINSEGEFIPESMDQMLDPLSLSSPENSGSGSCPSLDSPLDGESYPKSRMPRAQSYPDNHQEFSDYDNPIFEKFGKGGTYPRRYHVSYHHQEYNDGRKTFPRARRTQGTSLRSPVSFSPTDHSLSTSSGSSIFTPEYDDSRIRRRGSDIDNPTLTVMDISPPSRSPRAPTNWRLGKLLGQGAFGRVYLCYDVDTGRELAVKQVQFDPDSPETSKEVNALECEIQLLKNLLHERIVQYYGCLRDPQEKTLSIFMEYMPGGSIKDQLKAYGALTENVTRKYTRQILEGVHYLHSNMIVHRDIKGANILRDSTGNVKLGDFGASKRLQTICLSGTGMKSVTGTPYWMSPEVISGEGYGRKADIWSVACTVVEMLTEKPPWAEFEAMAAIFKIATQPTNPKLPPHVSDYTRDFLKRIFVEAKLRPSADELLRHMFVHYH
From the text: (§1) Table S4. Profiling of two compounds at two concentrations against 320 wild-type protein kinases; singlicate measurement; Residual activities (% of control).

[2] = molecular target: T2, 320 wild-type protein kinases (Homo sapiens, UniProt Q96BR1); settings: kinase SGK3, singlicate
T2 sequence (Q96BR1 1-496): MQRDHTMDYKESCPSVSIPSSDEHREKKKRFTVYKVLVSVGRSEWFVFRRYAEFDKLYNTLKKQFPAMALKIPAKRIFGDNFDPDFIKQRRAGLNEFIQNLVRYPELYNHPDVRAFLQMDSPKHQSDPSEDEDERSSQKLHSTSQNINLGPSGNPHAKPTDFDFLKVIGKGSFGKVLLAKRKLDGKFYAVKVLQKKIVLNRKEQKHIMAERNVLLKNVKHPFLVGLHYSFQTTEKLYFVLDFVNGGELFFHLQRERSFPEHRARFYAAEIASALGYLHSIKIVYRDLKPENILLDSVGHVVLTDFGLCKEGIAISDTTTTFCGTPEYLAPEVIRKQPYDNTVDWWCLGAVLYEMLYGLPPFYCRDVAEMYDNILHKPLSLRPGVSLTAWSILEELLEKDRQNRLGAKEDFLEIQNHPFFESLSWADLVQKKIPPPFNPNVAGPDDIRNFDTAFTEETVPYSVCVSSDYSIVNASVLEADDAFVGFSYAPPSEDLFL
From the text: as §1

[3] = molecular target: 320 wild-type protein kinases (Homo sapiens, UniProt Q9H0K1); settings: kinase SIK2, singlicate
Chain of 320 wild-type protein kinases (Homo sapiens, UniProt Q9H0K1) (Q9H0K1 whole entry): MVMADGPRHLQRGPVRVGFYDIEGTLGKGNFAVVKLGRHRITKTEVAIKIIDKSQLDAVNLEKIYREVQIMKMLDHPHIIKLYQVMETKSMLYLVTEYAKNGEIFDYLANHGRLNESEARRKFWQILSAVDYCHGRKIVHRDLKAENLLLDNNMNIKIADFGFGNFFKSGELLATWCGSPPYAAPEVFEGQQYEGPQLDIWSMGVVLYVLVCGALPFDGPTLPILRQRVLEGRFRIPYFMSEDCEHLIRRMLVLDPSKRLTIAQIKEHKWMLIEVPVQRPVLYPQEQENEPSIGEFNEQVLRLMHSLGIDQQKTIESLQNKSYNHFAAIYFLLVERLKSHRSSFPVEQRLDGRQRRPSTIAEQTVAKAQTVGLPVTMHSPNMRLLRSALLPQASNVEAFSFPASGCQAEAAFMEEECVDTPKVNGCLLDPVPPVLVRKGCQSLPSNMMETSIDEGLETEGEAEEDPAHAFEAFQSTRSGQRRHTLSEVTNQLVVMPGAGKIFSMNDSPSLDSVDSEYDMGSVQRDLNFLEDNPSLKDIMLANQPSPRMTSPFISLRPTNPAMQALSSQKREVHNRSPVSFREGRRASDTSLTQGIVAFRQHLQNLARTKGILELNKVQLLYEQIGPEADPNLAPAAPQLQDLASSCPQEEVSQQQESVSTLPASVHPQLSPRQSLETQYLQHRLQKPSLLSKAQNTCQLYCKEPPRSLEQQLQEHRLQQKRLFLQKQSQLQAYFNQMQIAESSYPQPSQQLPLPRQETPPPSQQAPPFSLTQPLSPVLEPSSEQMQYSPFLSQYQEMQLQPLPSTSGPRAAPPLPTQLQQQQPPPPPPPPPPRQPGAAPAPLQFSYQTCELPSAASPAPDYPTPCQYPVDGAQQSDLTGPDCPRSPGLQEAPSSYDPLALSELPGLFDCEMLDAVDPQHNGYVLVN
From the text: as §1

[4] = molecular target: T3, 320 wild-type protein kinases (Homo sapiens, UniProt O15146); settings: MUSK, singlicate
T3 sequence (O15146 24-869): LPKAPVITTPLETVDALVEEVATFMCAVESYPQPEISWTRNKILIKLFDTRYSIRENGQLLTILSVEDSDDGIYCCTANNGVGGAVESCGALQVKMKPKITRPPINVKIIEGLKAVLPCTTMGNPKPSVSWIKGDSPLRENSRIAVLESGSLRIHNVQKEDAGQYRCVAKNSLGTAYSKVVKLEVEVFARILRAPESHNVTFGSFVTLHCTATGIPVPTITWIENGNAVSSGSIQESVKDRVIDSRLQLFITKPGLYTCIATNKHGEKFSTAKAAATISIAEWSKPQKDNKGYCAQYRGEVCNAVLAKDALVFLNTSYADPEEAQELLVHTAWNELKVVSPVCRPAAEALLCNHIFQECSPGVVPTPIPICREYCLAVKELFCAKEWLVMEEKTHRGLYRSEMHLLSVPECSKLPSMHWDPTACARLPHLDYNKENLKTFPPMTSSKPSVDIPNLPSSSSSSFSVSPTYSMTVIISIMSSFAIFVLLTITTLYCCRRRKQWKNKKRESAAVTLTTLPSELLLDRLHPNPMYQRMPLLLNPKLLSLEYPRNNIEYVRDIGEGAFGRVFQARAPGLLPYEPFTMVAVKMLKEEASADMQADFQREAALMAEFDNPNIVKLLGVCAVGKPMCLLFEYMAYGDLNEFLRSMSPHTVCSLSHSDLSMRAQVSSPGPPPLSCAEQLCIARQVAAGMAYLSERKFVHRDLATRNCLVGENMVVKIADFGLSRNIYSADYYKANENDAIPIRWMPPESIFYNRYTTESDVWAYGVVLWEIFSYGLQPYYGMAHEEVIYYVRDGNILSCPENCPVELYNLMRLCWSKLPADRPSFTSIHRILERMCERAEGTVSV
From the text: as §1

[5] = molecular target: 320 wild-type protein kinases (Homo sapiens, UniProt P14616); settings: INSR-R, singlicate
Chain of 320 wild-type protein kinases (Homo sapiens, UniProt P14616) (P14616 27-1297): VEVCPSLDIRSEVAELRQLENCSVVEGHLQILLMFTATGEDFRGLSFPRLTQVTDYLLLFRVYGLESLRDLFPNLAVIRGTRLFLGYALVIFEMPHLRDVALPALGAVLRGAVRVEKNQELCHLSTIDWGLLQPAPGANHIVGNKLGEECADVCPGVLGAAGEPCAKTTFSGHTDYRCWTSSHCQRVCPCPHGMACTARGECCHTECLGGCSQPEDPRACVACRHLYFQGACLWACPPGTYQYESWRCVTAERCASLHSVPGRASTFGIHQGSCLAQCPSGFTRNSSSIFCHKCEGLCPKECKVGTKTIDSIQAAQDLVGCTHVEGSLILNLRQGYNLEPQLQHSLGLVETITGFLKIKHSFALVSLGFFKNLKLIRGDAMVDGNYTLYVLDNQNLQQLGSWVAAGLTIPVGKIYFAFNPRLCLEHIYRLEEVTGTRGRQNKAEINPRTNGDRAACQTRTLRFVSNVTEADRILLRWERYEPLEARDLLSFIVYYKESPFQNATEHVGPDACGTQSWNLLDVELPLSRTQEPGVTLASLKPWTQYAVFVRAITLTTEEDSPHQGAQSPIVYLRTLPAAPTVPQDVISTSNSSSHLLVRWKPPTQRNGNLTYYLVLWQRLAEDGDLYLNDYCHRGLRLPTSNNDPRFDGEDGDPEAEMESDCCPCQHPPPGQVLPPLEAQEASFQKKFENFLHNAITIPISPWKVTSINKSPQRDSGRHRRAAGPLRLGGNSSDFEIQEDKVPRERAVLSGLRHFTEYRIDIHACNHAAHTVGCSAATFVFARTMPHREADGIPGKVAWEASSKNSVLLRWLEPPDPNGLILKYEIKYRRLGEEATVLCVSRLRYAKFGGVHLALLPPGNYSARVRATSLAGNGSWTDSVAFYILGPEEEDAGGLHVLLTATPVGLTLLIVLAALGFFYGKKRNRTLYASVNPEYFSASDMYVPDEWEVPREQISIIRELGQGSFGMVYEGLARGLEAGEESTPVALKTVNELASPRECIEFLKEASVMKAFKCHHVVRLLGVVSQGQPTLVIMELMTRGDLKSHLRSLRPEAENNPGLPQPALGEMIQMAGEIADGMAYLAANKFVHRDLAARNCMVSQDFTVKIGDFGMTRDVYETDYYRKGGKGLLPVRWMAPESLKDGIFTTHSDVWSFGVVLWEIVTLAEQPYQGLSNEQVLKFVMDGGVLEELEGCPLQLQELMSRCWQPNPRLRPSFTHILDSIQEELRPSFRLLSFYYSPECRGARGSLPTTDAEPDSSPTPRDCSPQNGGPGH
From the text: as §1

[6] = molecular target: T4, 320 wild-type protein kinases (Homo sapiens, UniProt Q9H093); settings: kinase SNARK, singlicate
T4 sequence (Q9H093 1-628): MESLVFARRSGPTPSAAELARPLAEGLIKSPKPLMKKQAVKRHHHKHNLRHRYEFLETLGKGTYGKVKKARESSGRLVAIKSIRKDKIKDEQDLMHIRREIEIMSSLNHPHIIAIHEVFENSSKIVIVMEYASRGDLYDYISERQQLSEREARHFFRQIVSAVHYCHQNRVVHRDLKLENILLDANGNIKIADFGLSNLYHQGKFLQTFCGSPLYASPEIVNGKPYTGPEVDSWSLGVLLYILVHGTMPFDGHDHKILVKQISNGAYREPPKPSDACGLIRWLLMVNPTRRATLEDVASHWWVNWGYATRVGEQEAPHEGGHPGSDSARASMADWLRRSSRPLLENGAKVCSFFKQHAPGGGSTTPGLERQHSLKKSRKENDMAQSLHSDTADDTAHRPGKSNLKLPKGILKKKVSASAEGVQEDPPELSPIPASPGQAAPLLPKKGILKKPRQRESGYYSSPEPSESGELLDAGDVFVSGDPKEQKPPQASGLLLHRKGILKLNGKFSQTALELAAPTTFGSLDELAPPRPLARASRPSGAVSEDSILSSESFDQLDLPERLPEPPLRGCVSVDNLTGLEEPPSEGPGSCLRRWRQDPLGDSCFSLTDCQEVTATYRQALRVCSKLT
From the text: as §1

Row | Compound | Residual activity ([1]; MEKK2, 1.0E-06 M) | Residual activity ([1]; MEKK2, 1.0E-07 M) | Residual activity, SGK3 ([2]; assay conc. 1.0E-06 M) | Residual activity, SGK3 ([2]; assay conc. 1.0E-07 M) | Residual activity, SIK2 ([3]; assay conc. 1.0E-06 M) | Residual activity, SIK2 ([3]; assay conc. 1.0E-07 M) | Residual activity ([4]; 1.0E-06 M) | Residual activity ([4]; 1.0E-07 M) | Residual activity ([5]; 1.0E-06 M) | Residual activity ([5]; 1.0E-07 M) | Residual activity, SNARK ([6]; assay conc. 1.0E-06 M) | Residual activity, SNARK ([6]; assay conc. 1.0E-07 M)
1 | C#Cc1cc(Nc2ncnc3cc(I)ccc23)ccc1Cl [Compound 41] | 93 % of control | 112 % of control | 86 % of control | 91 % of control | 83 % of control | 92 % of control | 96 % of control | 94 % of control | 93 % of control | 96 % of control | 83 % of control | 101 % of control
2 | C#Cc1cc(Nc2ncnc3cc(OC)c(OC)cc23)ccc1Cl [Compound 45] | 107 % of control | 120 % of control | 89 % of control | 93 % of control | 67 % of control | 97 % of control | 87 % of control | 94 % of control | 99 % of control | 103 % of control | 87 % of control | 88 % of control

Reference: PMC9329436, “Optimization of the 4-anilinoquin(az)oline scaffold as epidermal growth factor receptor (EGFR) inhibitors for chordoma utilizing a toxicology profiling assay platform” (Scientific Reports, 2022)
